{
  "source": "patent US20100137277A1",
  "about": "“PYRIDINE COMPOUNDS AND THEIR USE AS P2Y12 ANTAGONISTS” (ASTRAZENECA AB, priority 2007, published 2010)",
  "data": [
    {"target": "T1, P2Y12 receptor (Homo sapiens, UniProt Q9H244)", "T1 construct": "expressed in transfected cells; host or cells: CHO cells (membranes)", "T1 sequence (Q9H244 whole entry)": "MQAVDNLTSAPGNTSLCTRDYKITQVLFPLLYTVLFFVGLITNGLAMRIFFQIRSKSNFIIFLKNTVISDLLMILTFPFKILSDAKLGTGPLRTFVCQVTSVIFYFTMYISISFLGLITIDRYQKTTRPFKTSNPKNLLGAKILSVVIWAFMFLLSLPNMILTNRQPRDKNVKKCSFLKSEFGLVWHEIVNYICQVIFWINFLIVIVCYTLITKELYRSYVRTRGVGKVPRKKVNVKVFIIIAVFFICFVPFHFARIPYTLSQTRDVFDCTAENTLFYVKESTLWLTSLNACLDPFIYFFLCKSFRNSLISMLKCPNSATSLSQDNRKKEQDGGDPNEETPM", "assay": "Functional inhibition of 2-Me-S-ADP induced P2Y12 signalling (35S-GTPγS binding, membranes from P2Y12 transfected CHO-cells)", "type": "biochemical", "conditions": "EC80 of agonist, value given at the end of each example", "procedure": "Functional inhibition of—the P2Y12 receptor can be measured by in vitro assays using cell membranes from P2Y12 transfected CHO-cells, the methodology is indicated below.\nFunctional inhibition of 2-Me-S-ADP induced P2Y12 signalling: 5 μg of membranes were diluted in 200 μl of 200 mM NaCl, 1 mM MgCl2, 50 mM HEPES (pH 7.4), 0.01% BSA, 30 μg/ml saponin and 10 μM GDP. To this was added an EC80 concentration of agonist (2-methyl-thio-adenosine diphosphate), the required concentration of test compound and 0.1 μCi ^35S-GTPγS. The reaction was allowed to proceed at 30° C. for 45 min. Samples were then transferred on to GF/B filters using a cell harvester and washed with wash buffer (50 mM Tris (pH 7.4), 5 mM MgCl2, 50mM NaCl). Filters were then covered with scintilant and counted for the amount of ^35S-GTPγS retained by the filter. Maximum activity was that determined in the presence of the agonist and minimum activity in the absence of the agonist following subtraction of the value determined for non-specific activity. The effect of compounds at various concentrations was plotted according to the equation\ny=A+((B−A)/(1+((C/x)̂D)))\nand IC50 estimated where • A is the bottom plateau of the curve i.e. the final minimum y value • B is the top of the plateau of the curve i.e. the final maximum y value • C is the x value at the middle of the curve. This represents the log EC50 value when A+B=100 • D is the slope factor. • x is the original known x values. • Y is the original known y values.\nFunctional inhibition of 2-Me-S-ADP induced P2Y12 signalling: 5 μg of membranes were diluted in 200 μl of 200 mM NaCl, 1 mM MgCl2, 50 mM HEPES (pH 7.4), 0.01% BSA, 30 μg/ml saponin and 10 μM GDP. To this was added an EC80 concentration of agonist (2-methyl-thio-adenosine diphosphate), the required concentration of test compound and 0.1 μCi ^35S-GTPγS. The reaction was allowed to proceed at 30° C. for 45 min. Samples were then transferred on to GF/B filters using a cell harvester and washed with wash buffer (50 mM Tris (pH 7.4), 5 mM MgCl2, 50 mM NaCl). […]", "units": {"IC50": "µM"}, "values": [
      {"smiles": "CCOC(=O)c1cc(C#N)c(N2CCC(C(=O)NS(=O)(=O)c3ccccc3)CC2)nc1OC", "note": "[Example 7, Ethyl 5-cyano-2-methoxy-6-{4-[(phenylsulfonyl)carbamoyl]piperidin-1-yl}nicotinate]", "IC50": 0.134},
      {"smiles": "CCOC(=O)c1cc(C#N)c(N2CC(C(=O)NS(=O)(=O)Cc3ccccc3F)C2)nc1OC", "note": "[Example 21]", "IC50": 0.015},
      {"smiles": "CCOC(=O)c1cc(C#N)c(N2CC(C(=O)NS(=O)(=O)Cc3ccccc3)C2)nc1COCc1ccccc1", "note": "[Example 35, Ethyl 2-[(benzyloxy)methyl]-6-{3-[(benzylsulfonyl)carbamoyl]azetidin-1-yl}-5-cyanonicotinate]", "IC50": 0.089}
    ]}
  ]
}
